Results published in patent US20110287110A1, “COMBINATION CANCER TREATMENT” (priority 2010, published 2011).

Assays:
Ctr1 = details: cells with Ctr1 deleted; Ishida et al. 2002, Larson et al. 2009; cited from earlier work
[1] = tested on: bladder cancer cell lines (5637, J82, RT4, MB49, MBT2, NBT2); experiment: Clonogenic survival assay, sensitivity to cisplatin in bladder cancer cell lines; format: cell-based, human and rodent; details: cells expressing higher basal levels of Ctr1 (5637 and MBT2) vs other lines; cisplatin 1, 5, 10, or 50 μM for 2 hours; FIG. 1
Description: Bladder cell lines (5637, J82, RT4, MB49, MBT2, and NBT2) were kindly provided by Brant A. Inman, MD. J82, NBT2, MB49, and MBT2 cells were cultured in Dulbecco's modified Eagle's medium (DMEM) containing 10% fetal bovine serum (FBS) and 1% antibiotic-antimycotic (AA; Invitrogen). RT4 and 5637 cells were cultured in McCoy's 5A modified medium and RPMI-1640 medium, respectively, containing 10% FBS and 1% AA. The WT and Ctr1−/− MEF cell lines as well as the Ctr1 antibody were kindly provided by Dennis J. Thiele, PhD. MEF cells were cultured in DMEM containing 20% FBS, 1% L-Glutamine-Penicillin-Streptomycin (Sigma), 1% sodium pyruvate, 1% nonessential amino acids, 0.5 mg/L uridine (Sigma), and 55 μM 2-mercaptoethanol. […]
Basal Ctr1 protein expression was assessed using Western blot in several different human (5637, J82, and RT4) and rodent (MB49, MBT2, and NBT2) bladder cancer cell lines. […] Samples were centrifuged at 12,000 rpm, and 100 μg of protein was separated using 4-20% SDS-PAGE, transferred to PVDF membrane and detected by chemiluminescence using anti-Ctr1 antibody (1:1000; kindly provided by Dennis J. Thiele, PhD) followed by anti-rabbit HRP antibody (1:2000; Bio-Rad). Sensitivity to cisplatin was assessed using a clonogenic survival assay. […] Cells were incubated until colonies (50+ cells) were detected (7-14 days). Colonies were then stained using crystal violet and counted.

[2] = tested on: WT and Ctr1−/− mouse embryonic fibroblasts (MEFs); experiment: Clonogenic survival assay, sensitivity to cisplatin in WT and Ctr1−/− MEFs; format: cell-based; details: cisplatin 1, 5, or 10 μM for 2 hours, FIG. 2
Description: (§1) Bladder cell lines (5637, J82, RT4, MB49, MBT2, and NBT2) were kindly provided by Brant A. Inman, MD. J82, NBT2, MB49, and MBT2 cells were cultured in Dulbecco's modified Eagle's medium (DMEM) containing 10% fetal bovine serum (FBS) and 1% antibiotic-antimycotic (AA; Invitrogen). RT4 and 5637 cells were cultured in McCoy's 5A modified medium and RPMI-1640 medium, respectively, containing 10% FBS and 1% AA. The WT and Ctr1−/− MEF cell lines as well as the Ctr1 antibody were kindly provided by Dennis J. Thiele, PhD. MEF cells were cultured in DMEM containing 20% FBS, 1% L-Glutamine-Penicillin-Streptomycin (Sigma), 1% sodium pyruvate, 1% nonessential amino acids, 0.5 mg/L uridine (Sigma), and 55 μM 2-mercaptoethanol. All cells were maintained at 37° C. and at 5% CO2.
Basal Ctr1 protein expression was assessed using western blot in WT and Ctr1−/− mouse embryonic fibroblasts (MEFs). Sensitivity to cisplatin was assessed using a clonogenic survival assay. Briefly, a known density of cells was plated in 6-well plates. Approximately 18-24 hours after plating, cells were exposed to cisplatin (1, 5, or 10 μM; APP Pharmaceuticals; 50 mg/50 mL) or saline for 2 hours. […] Cells were incubated until colonies (50+ cells) were detected (7-14 days). Colonies were then stained using crystal violet and counted.

WT and Ctr1−/− MEFs [3] = experiment: Cisplatin uptake/accumulation (intracellular platinum by ICP-AES) in MEFs; format: cell-based, mouse; details: cisplatin 100 μg/mL
Description: as §1
WT and Ctr1−/− MEFs were plated into T175 flasks and treated with concurrent hyperthermia (42° C.) or normothermia (37° C.) and cisplatin (100 μg/mL; APP Pharmaceuticals; 50 mg/50 mL) for 1 hour. Following this 1 hour incubation, cells were incubated with cisplatin for an additional hour at 37° C. Cells were then washed twice with PBS and harvested into 1 mL of 3N HCl and 10% TCA. Samples were digested at 70° C. for 18 hours and centrifuged at 20,800×g for 5 minutes. The supernatants were collected, and intracellular platinum accumulation was measured using inductively coupled plasma atomic emission spectroscopy (ICP-AES) at the EPA, Chapel Hill, N.C.

WT and Ctr1−/− MEFs [4] = experiment: Platinum-DNA adduct formation (immunofluorescence) in MEFs; format: cell-based, mouse; details: WT compared to Ctr1−/− cells, particularly following hyperthermia; 50 μg/mL cisplatin; FIG. 4
Description: as §1
WT and Ctr1−/− MEFs were plated on coverslips (80,000-90,000 cells) in 6-well plates. Approximately 24-48 hours after plating, cells were treated with or without concurrent mild hyperthermia (42° C.) or normothermia (37° C.) and 50 μg/mL cisplatin (APP Pharmaceuticals; 50 mg/50 mL) for 1 hour. Following this initial 1 hour treatment, cells were incubated for 3 additional hours at 37° C. Following treatment, platinum-DNA adducts were stained using immunofluorescence. […] Cells were imaged using a Zeiss Axio Imager widefield fluorescence microscope (Carl Zeiss MicroImaging).

N.N.[Cl][Pt][Cl] [cisplatin, cis-diamminedichloroplatinum (II)]
Cisplatin resistance (Ctr1): increased
Cisplatin uptake (Ctr1): decreased
Sensitivity to cisplatin (clonogenic survival) [1]: more sensitive
Sensitivity to cisplatin (clonogenic survival) ([2]; Ctr1−/− MEFs (do not express Ctr1)): more resistant
Sensitivity to cisplatin (clonogenic survival) ([2]; WT MEFs (higher basal Ctr1)): more sensitive
Further increase in platinum uptake after hyperthermia (WT and Ctr1−/− MEFs [3]; Ctr1−/− cells, hyperthermia 42° C. vs normothermia 37° C.): not observed
Platinum levels (intracellular platinum accumulation) (WT and Ctr1−/− MEFs [3]; WT cells compared to Ctr1−/− cells, with and without hyperthermia (42° C.), FIG. 3): Higher platinum levels
Platinum uptake after hyperthermia (WT and Ctr1−/− MEFs [3]; WT cells, hyperthermia 42° C. vs normothermia 37° C.): further increase
Percentages of adduct-positive cells and adduct formation (WT and Ctr1−/− MEFs [4]): Higher
